Experimental data from patent US20240228488A1 (TAKEDA PHARMACEUTICAL COMPANY LIMITED, priority 2021, published 2024).

Biological target: human activated kallikrein enzyme (Homo sapiens, UniProt P03952)
Assay: Plasma kallikrein inhibition, fluorogenic PFR-AMC substrate, 500 pM activated kallikrein format
Format: biochemical
Settings: 500 pM activated kallikrein, 300 uM PFR-AMC, 30 min preincubation, 10 min reaction; read-out: Primary Dose Response Assay: Average EC50
Protocol: Compounds were evaluated for inhibition of the human activated kallikrein enzyme in two formats of an assay employing a fluorogenic peptide substrate. In one assay format, the concentrations of reagents were as follows: 20 mM Tris pH 7.5, 1 mM EDTA, 150 mM sodium chloride, 0.1% PEG-400, 0.1% Triton X-100, 500 pM activated kallikrein enzyme, 300 uM Pro-Phe-Arg-7-amido-4-methylcoumarin (PFR-AMC) substrate. Prior to reaction initiation with substrate, enzyme and inhibitors were preincubated for 30 min at room temperature. After initiation with substrate, reactions were incubated for 10 min at room temperature and fluorescence emission at 460 nm from 380 nm excitation measured with a microplate reader. In another assay format, the concentrations of reagents were as follows: 20 mM Tris pH 7.5, 1 mM EDTA, 150 mM sodium chloride, 0.1% PEG-400, 0.1% Triton X-100, 5 pM activated kallikrein enzyme, 300 uM PFR-AMC substrate. Prior to reaction initiation with substrate, enzyme and inhibitors were preincubated for 30 min at room temperature. After initiation with substrate, reactions were incubated for 18 hr at room temperature and fluorescence emission at 460 nm from 380 nm excitation measured with a microplate reader.
Table 49 provides the results of the assay in the format with 500 pM activated kallikrein assay. For the compounds listed in Table 49, the EC50 values are reported according to the following ranges: A≤1.0 nM; 1.0 nM<B≤10 nM; 10 nM<C≤100 nM; 100 nM<D≤1000 nM; 1000 nM<E≤6000 nM; 6000 nM<F.
Table 51 provides comparative plasma kallikrein inhibition potency in the assay format with 500 pM activated kallikrein assay (described in detail in a preceding example). For the compounds listed in Table 51, the EC50 values are reported according to the following ranges: A≤1.0 nM; 1.0 nM<B≤10 nM; 10 nM<C≤100 nM; 100 nM<D≤1000 nM; 1000 nM<E≤6000 nM; 6000 nM<F.

Sequence of human activated kallikrein enzyme (P03952 391-638 limits assumed): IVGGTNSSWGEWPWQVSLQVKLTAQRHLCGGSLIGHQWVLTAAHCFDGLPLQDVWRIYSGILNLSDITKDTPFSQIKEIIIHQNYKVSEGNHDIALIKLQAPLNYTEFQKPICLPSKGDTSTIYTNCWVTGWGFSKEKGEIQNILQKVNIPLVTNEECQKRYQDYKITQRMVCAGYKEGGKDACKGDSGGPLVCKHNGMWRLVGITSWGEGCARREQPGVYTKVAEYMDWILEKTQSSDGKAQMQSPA
Sequence of human activated kallikrein enzyme (P03952 20-390 partner limits assumed): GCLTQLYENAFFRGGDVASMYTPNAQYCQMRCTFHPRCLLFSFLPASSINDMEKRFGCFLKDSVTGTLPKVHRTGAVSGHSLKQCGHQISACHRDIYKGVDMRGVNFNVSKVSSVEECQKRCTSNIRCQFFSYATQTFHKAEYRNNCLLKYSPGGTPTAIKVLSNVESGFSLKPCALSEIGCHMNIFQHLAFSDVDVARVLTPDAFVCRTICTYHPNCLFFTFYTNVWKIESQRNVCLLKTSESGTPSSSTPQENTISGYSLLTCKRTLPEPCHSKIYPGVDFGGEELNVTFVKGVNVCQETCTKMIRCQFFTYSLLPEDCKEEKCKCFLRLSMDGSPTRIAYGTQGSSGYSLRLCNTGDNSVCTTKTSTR

With Cc1ccnc([C@H]2C[C@@H]2C(=O)Nc2nncc(N(C)Cc3cn4cc(C5CC5)cc(N5CC(=O)N(C)C5=O)c4n3)n2)n1 [Example 668, (1S,2S)—N-(5-(((6-cyclopropyl-8-(3-methyl-2,4-dioxoimidazolidin-1-yl)imidazo[1,2-a]pyridin-2-yl)methyl)(methyl)amino)-1,2,4-triazin-3-yl)-2-(4-methylpyrimidin-2-yl)cyclopropane-1-carboxamide] as the compound, how does the EC50 read?
Its EC50 is less than 0.001 µM.

Which EC50 does the source give for COc1nc(NCc2cn3cc(C4CC4)ccc3n2)cc(NC(=O)[C@@H]2C[C@H]2c2cccc(Cl)c2)n1 (racemic) [Example 107, rac-(1S*,2S*)-2-(3-chlorophenyl)-N-(6-(((6-cyclopropylimidazo[1,2-a]pyridin-2-yl)methyl)amino)-2-methoxypyrimidin-4-yl)cyclopropane-1-carboxamide] here?
The EC50 was 0.01 to 0.1 µM.

For CS(=O)(=O)c1nc(NCc2cn3cc(C4CC4)ccc3n2)cc(NC(=O)[C@H]2C[C@@H]2c2cccc(Cl)c2)n1 (racemic) [Example 110, rac-(1S*,2S*)-2-(3-chlorophenyl)-N-(6-(((6-cyclopropylimidazo[1,2-a]pyridin-2-yl)methyl)amino)-2-(methylsulfonyl)pyrimidin-4-yl)cyclopropane-1-carboxamide], which EC50 is on record?
Its EC50 is 0.01 to 0.1 µM.

Which EC50 does the source give for N#Cc1ccc(Cl)cc1[C@H]1C[C@@H]1C(=O)Nc1nccc2nn(Cc3cn4cc(C5CC5)ccc4n3)cc12 (racemic) [Example 579, rac-(1S*,2S*)-2-(5-chloro-2-cyanophenyl)-N-(2-((6-cyclopropylimidazo[1,2-a]pyridin-2-yl)methyl)-2H-pyrazolo[4,3-c]pyridin-4-yl)cyclopropane-1-carboxamide] here?
Its EC50 is less than 0.001 µM.

For O=C(Nc1cc(NCc2cn3cc(C4CC4)cc(N4CCOCC4=O)c3n2)ncn1)[C@H]1C[C@@H]1c1cccc(Cl)c1 (racemic) [Example 74, rac-(1S*,2S*)-2-(3-chlorophenyl)-N-(6-(((6-cyclopropyl-8-(3-oxomorpholino)imidazo[1,2-a]pyridin-2-yl)methyl)amino)pyrimidin-4-yl)cyclopropane-1-carboxamide], which EC50 is on record?
The EC50 was less than 0.001 µM.

With CC(=O)N1CCN(c2cc(C3CC3)cn3cc(CNc4cc(NC(=O)[C@H]5C[C@@H]5c5cccc(Cl)c5)ncn4)nc23)CC1 [Example I-1, (1S,2S)—N-(6-(((8-(4-acetylpiperazin-1-yl)-6-cyclopropylimidazo[1,2-a]pyridin-2-yl)methyl)amino)pyrimidin-4-yl)-2-(3-chlorophenyl)cyclopropane-1-carboxamide] as the compound, how does the EC50 read?
Its EC50 is 0.001 to 0.01 µM.

Which EC50 does the source give for CN1CCN(c2cc(C3CC3)cn3cc(CNc4cncc(NC(=O)[C@H]5C[C@@H]5c5cccc(Cl)c5)n4)nc23)CC1 [Example I-255, (1S,2S)-2-(3-chlorophenyl)-N-(6-(((6-cyclopropyl-8-(4-methylpiperazin-1-yl)imidazo[1,2-a]pyridin-2-yl)methyl)amino)pyrazin-2-yl)cyclopropane-1-carboxamide] here?
Its EC50 is 0.001 to 0.01 µM.

For N#Cc1ccc(Cl)cc1[C@H]1C[C@@H]1C(=O)Nc1cc(NCc2cn3cc(C4CC4)cc(N4CCCC4=O)c3n2)ncn1 (racemic) [Example 334], which EC50 is on record?
The EC50 was less than 0.001 µM.

For Cc1ccnc([C@H]2C[C@@H]2C(=O)Nc2cc(OCc3cn4cc(C5CC5)cc(N5CC6CC6C5=O)c4n3)cnn2)n1 (stereo partly drawn) [Example 571, (1S,2S)-N-(5-((6-cyclopropyl-8-(2-oxo-3-azabicyclo[3.1.0]hexan-3-yl)imidazo[1,2-a]pyridin-2-yl)methoxy)pyridazin-3-yl)-2-(4-methylpyrimidin-2-yl)cyclopropane-1-carboxamide], which EC50 is on record?
Its EC50 is less than 0.001 µM.

O=C(Nc1nccnc1OCc1cn2cc(C3CC3)ccc2n1)[C@H]1C[C@@H]1c1cccc(Cl)c1 [Example 570, (1S,2S)-2-(3-chlorophenyl)-N-(3-((6-cyclopropylimidazo[1,2-a]pyridin-2-yl)methoxy)pyrazin-2-yl)cyclopropane-1-carboxamide] was tested. Which EC50 did it give?
Its EC50 is 0.01 to 0.1 µM.

How did the EC50 turn out when O=C(Nc1cc(NCc2cn3cc(C4CC4)ccc3n2)ccn1)[C@@H]1C[C@]12CCc1ccc(Cl)cc12 (single isomer, unassigned) [Example I-273, rac-(1S*,2S*)-6′-chloro-N-(4-(((6-cyclopropylimidazo[1,2-a]pyridin-2-yl)methyl)amino)pyridin-2-yl)-2′,3′-dihydrospiro[cyclopropane-1,1′-indene]-2-carboxamide] was run?
Its EC50 is less than 0.001 µM.

How did the EC50 turn out when CCOC(=O)CCc1cc(C2CC2)cn2cc(CNc3cc(NC(=O)[C@H]4C[C@@H]4c4cccc(Cl)c4)ncn3)nc12 (racemic) [Example 61, rac-ethyl 3-(2-(((6-((1S*,2S*)-2-(3-chlorophenyl)cyclopropane-1-carboxamido)pyrimidin-4-yl)amino)methyl)-6-cyclopropylimidazo[1,2-α]pyridin-8-yl)propanoate] was run?
Its EC50 is 0.001 to 0.01 µM.

How did the EC50 turn out when Cc1ccnc([C@H]2C[C@@H]2C(=O)Nc2ncc3oc(=O)n(Cc4cn5cc(C6CC6)cc(N6CC(=O)N(C)C6=O)c5n4)c3n2)n1 (racemic) [Example 626, rac-(1S*,2S*)—N-(3-((6-cyclopropyl-8-(3-methyl-2,4-dioxoimidazolidin-1-yl)imidazo[1,2-a]pyridin-2-yl)methyl)-2-oxo-2,3-dihydrooxazolo[4,5-d]pyrimidin-5-yl)-2-(4-methylpyrimidin-2-yl)cyclopropane-1-carboxamide] was run?
The EC50 was less than 0.001 µM.

How did the EC50 turn out when CS(=O)(=O)c1cc(C2CC2)cn2cc(CNc3cc(NC(=O)[C@H]4C[C@@H]4c4cc(Cl)ccn4)ncn3)nc12 [Example 325, (1S,2S)-2-(4-chloropyridin-2-yl)-N-(6-(((6-cyclopropyl-8-(methylsulfonyl)imidazo[1,2-a]pyridin-2-yl)methyl)amino)pyrimidin-4-yl)cyclopropane-1-carboxamide] was run?
The EC50 was less than 0.001 µM.

Which EC50 does the source give for O=C(Nc1cc(NCc2cn3cc(C4CC4)ccc3n2)ncn1)[C@H]1C[C@@H]1c1cc(Cl)ccc1C(F)F (racemic) [Example 51, rac-(1S*,2S*)-2-(5-chloro-2-(difluoromethyl)phenyl)-N-(6-(((6-cyclopropylimidazo[1,2-a]pyridin-2-yl)methyl)amino)pyrimidin-4-yl)cyclopropane-1-carboxamide] here?
The EC50 was 0.01 to 0.1 µM.

O=C(O)c1nc(NCc2cn3cc(C4CC4)ccc3n2)cc(NC(=O)[C@H]2C[C@@H]2c2cccc(Cl)c2)n1 (racemic) [Example 112, rac-4-((1S*,2S*)-2-(3-chlorophenyl)cyclopropane-1-carboxamido)-6-(((6-cyclopropylimidazo[1,2-a]pyridin-2-yl)methyl)amino)pyrimidine-2-carboxylic acid] was tested. Which EC50 did it give?
The EC50 was 0.001 to 0.01 µM.

With O=C(Nc1cc(N2CCC[C@@H]2c2cn3cc(C4CC4)ccc3n2)ncn1)[C@H]1C[C@@H]1c1cccc(Cl)c1 [Example I-251, (1S,2S)-2-(3-chlorophenyl)-N-(6-((R)-2-(6-cyclopropylimidazo[1,2-a]pyridin-2-yl)pyrrolidin-1-yl)pyrimidin-4-yl)cyclopropane-1-carboxamide] as the compound, how does the EC50 read?
The EC50 was 0.01 to 0.1 µM.

Which EC50 does the source give for O=C(Nc1cc(NCc2cn3cc(C4CC4)cc(N4CCCC4=O)c3n2)ccn1)[C@@H]1C[C@H]1c1cccc(Cl)c1 (relative stereo) [Example 118] here?
Its EC50 is less than 0.001 µM.

With Cc1ccnc([C@H]2C[C@@H]2C(=O)Nc2cccc(SCc3cn4cc(C5CC5)cc(N5CC(=O)N(C)C5=O)c4n3)c2)n1 [Example I-645, (1S,2S)—N-(3-(((6-cyclopropyl-8-(3-methyl-2,4-dioxoimidazolidin-1-yl)imidazo[1,2-a]pyridin-2-yl)methyl)thio)phenyl)-2-(4-methylpyrimidin-2-yl)cyclopropane-1-carboxamide] as the compound, how does the EC50 read?
The EC50 was 0.01 to 0.1 µM.

With Cc1ccnc([C@H]2C[C@@H]2C(=O)Nc2cc(N[C@H](C)c3cn4cc(C(C)(F)F)cc(N5CC(=O)N(C)C5=O)c4n3)ncn2)n1 [Example 531, (1S,2S)-N-(6-(((R)-1-(6-(1,1-difluoroethyl)-8-(3-methyl-2,4-dioxoimidazolidin-1-yl)imidazo[1,2-a]pyridin-2-yl)ethyl)amino)pyrimidin-4-yl)-2-(4-methylpyrimidin-2-yl)cyclopropane-1-carboxamide] as the compound, how does the EC50 read?
Its EC50 is less than 0.001 µM.

For COc1cc([C@H]2C[C@@H]2C(=O)Nc2cc(NCc3cn4cc(C5CC5)ccc4n3)ncn2)cc(NC(=O)OC(C)(C)C)n1 (racemic) [Example I-182, rac-tert-butyl (4-((1S*,2S*)-2-((6-(((6-cyclopropylimidazo[1,2-a]pyridin-2-yl)methyl)amino)pyrimidin-4-yl)carbamoyl)cyclopropyl)-6-methoxypyridin-2-yl)carbamate], which EC50 is on record?
Its EC50 is greater than 6 µM.

How did the EC50 turn out when O=C(Nc1cc(NCc2cn3cc(C4CC4)ccc3n2)ccn1)[C@H]1C[C@@H]1c1n[nH]c2ccc(Cl)cc12 (racemic) [Example I-225, rac-(1S*,2S*)-2-(5-chloro-1H-indazol-3-yl)-N-(4-(((6-cyclopropylimidazo[1,2-a]pyridin-2-yl)methyl)amino)pyridin-2-yl)cyclopropane-1-carboxamide] was run?
The EC50 was greater than 6 µM.
